Assay results: the supplement of paper PMC10307832

Columns and labels:
Assay in all cases: relative viability (nuclei count vs DMSO), 5 days (fraction); higher = more cells survive
Doramapimod = compound: Cc1ccc(-n2nc(C(C)(C)C)cc2NC(=O)Nc2ccc(OCCN3CCOCC3)c3ccccc23)cc1 [Doramapimod]
Outline: (§1)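 On vehicle-anchored 1536-well plates, lung cancer cell lines held overnight at 37 °C were pinned with five library-drug doses (not always all listed) spaced by √10. With no medium change over 5 days, they were then fixed, permeabilised and Hoechst-stained in one step and imaged at 4×. MetaXpress counted nuclei, and viability is the median across plates of treated-well over vehicle-well nuclei. Acceptance needed control CV below 25% and at least one doubling.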

IPA-3 = compound: C1=CC=C2C(=C1)C=CC(=C2SSC3=C(C=CC4=CC=CC=C43)O)O [IPA-3]
Outline: as §1

RAF265 = compound: Cn1c(Nc2ccc(C(F)(F)F)cc2)nc2cc(Oc3ccnc(-c4ncc(C(F)(F)F)[nH]4)c3)ccc21 [RAF265]
Outline: as §1

IPA-3 + Foretinib = compound: C1=CC=C2C(=C1)C=CC(=C2SSC3=C(C=CC4=CC=CC=C43)O)O [IPA-3] + COc1cc2c(Oc3ccc(NC(=O)C4(C(=O)Nc5ccc(F)cc5)CC4)cc3F)ccnc2cc1OCCCN1CCOCC1 [Foretinib] (partner 0.25 µM)
Outline: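 Medians of duplicate plates are given as relative viability. That measure is the nuclei count in treated wells divided by the count in vehicle wells. Counts were taken on 4× images of lung cancer cell lines in 1536-well plates, 5 days after pin-tool dosing the day after seeding with one drug alone or a fixed anchor-drug dose plus five library-drug doses (not always all listed) in √10 steps.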

| Cell Line | relative viability (Doramapimod; 0.02 µM) | relative viability (Doramapimod; 0.06325 µM) | relative viability (Doramapimod; 0.2 µM) | relative viability (Doramapimod; 0.6325 µM) | relative viability (Doramapimod; 2 µM) | relative viability (IPA-3; 0.2 µM) | relative viability (IPA-3; 0.6325 µM) | relative viability (IPA-3; 2 µM) | relative viability (IPA-3; 6.325 µM) | relative viability (IPA-3; 20 µM) | relative viability (RAF265; 0.01 µM) | relative viability (RAF265; 0.03162 µM) | relative viability (RAF265; 0.1 µM) | relative viability (RAF265; 0.3162 µM) | relative viability (RAF265; 1 µM) | relative viability (IPA-3 + Foretinib; first compound 0.2 µM) | relative viability (IPA-3 + Foretinib; first compound 0.6325 µM) | relative viability (IPA-3 + Foretinib; first compound 2 µM) | relative viability (IPA-3 + Foretinib; first compound 6.325 µM) | relative viability (IPA-3 + Foretinib; first compound 20 µM) |
| --- | --- | --- | --- | --- | --- | --- | --- | --- | --- | --- | --- | --- | --- | --- | --- | --- | --- | --- | --- | --- |
| HOP-62 | 1.02 | 1.06 | 1.08 | 0.931 | 0.975 | 1.08 | 0.925 | 0.986 | 1 | 1.09 | 1.12 | 0.989 | 0.952 | 1 | 0.834 | 1.28 | 1.04 | 1.21 | 1.09 | 1.19 |
| NCI-H650 | 0.965 | 1.02 | 1.11 | 0.901 | 0.913 | 1.2 | 0.977 | 0.861 | 1.03 | 1.12 | 1.07 | 0.845 | 0.969 | 0.615 | 0.51 | 1.11 | 0.97 | 1.11 | 1.03 | 1.2 |
| NCI-H358 | 0.873 | 0.881 | 0.973 | 0.923 | 0.88 | 1.06 | 0.892 | 0.917 | 0.965 | 0.949 | 1.03 | 0.903 | 0.686 | 0.382 | 0.262 | 0.815 | 0.622 | 0.713 | 0.732 | 0.721 |
| BEN | 0.874 | 0.922 | 1 | 0.82 | 0.884 | 0.982 | 0.951 | 1.07 | 0.943 | 1.15 | 0.968 | 1.11 | 1.11 | 0.95 | 0.907 | 0.733 | 0.598 | 0.729 | 0.889 | 0.614 |
| SW 1573 | 0.946 | 0.9 | 0.844 | 0.952 | 0.838 | 1.13 | 0.919 | 1.01 | 0.94 | 0.696 | 1.18 | 0.89 | 0.955 | 0.98 | 0.573 | 1.06 | 0.83 | 0.806 | 0.808 | 0.893 |
| ChaGo-K-1 | 0.988 | 1.09 | 0.983 | 0.975 | 0.916 | 1.05 | 0.96 | 0.96 | 1.06 | 1.07 | 0.977 | 1.04 | 1.01 | 0.865 | 0.789 | 0.933 | 0.875 | 0.996 | 0.93 | 1.14 |
| SK-MES-1 | 1.01 | 0.934 | 0.95 | 1.05 | 0.926 | 1.08 | 0.97 | 1.07 | 0.923 | 1.02 | 1.03 | 0.805 | 0.634 | 0.441 | 0.283 | 0.982 | 0.889 | 0.892 | 0.953 | 1.22 |
| SW 900 | 0.893 | 1.03 | 0.941 | 0.945 | 0.737 | 1.13 | 0.698 | 0.686 | 0.775 | 0.775 | 1.06 | 0.792 | 0.856 | 0.679 | 0.527 | 1.04 | 0.792 | 0.975 | 1.14 | 1.08 |
| NCI-H1755 | 0.966 | 0.958 | 1.03 | 0.988 | 0.997 | 1.08 | 0.922 | 1.04 | 1.01 | 1.12 | 1.1 | 1.01 | 0.984 | 0.889 | 0.638 | 0.923 | 0.884 | 0.879 | 0.85 | 0.952 |
| NCI-H2023 | 0.928 | 0.975 | 0.998 | 1.19 | 0.906 | 1.37 | 0.899 | 1.02 | 1.1 | 1.06 | 0.988 | 0.988 | 1.13 | 0.762 | 0.808 | 0.856 | 0.666 | 0.995 | 0.853 | 1.1 |
| LC-2-ad | 0.991 | 1.02 | 1.07 | 1.02 | 0.923 | 1.05 | 0.958 | 0.978 | 1.03 | 0.992 | 1.09 | 0.989 | 1.11 | 0.748 | 0.484 | 0.986 | 0.934 | 0.832 | 0.938 | 1.03 |
| NCI-H1666 | 1.06 | 1.03 | 1 | 1.11 | 1.01 | 1.15 | 0.978 | 1.02 | 1.08 | 1.12 | 1.07 | 1.01 | 1.01 | 1.01 | 0.795 | 0.988 | 0.926 | 0.976 | 1.01 | 1.16 |
| EBC-1 | 0.949 | 0.987 | 0.991 | 1.03 | 0.838 | 1.29 | 0.984 | 1.01 | 0.963 | 0.933 | 1.05 | 0.966 | 0.939 | 0.794 | 0.611 | 0.104 | 0.113 | 0.0992 | 0.121 | 0.108 |
| 201T | 1 | 1.02 | 0.975 | 1.15 | 0.957 | 0.998 | 0.975 | 0.958 | 0.993 | 1.09 | 1.04 | 0.99 | 1.02 | 0.977 | 0.992 | 1.33 | 1.11 | 1.17 | 1.09 | 1.15 |
| NCI-H2009 | 1.03 | 1.14 | 1.11 | 1.17 | 1.02 | 1.17 | 0.969 | 1.01 | 0.984 | 0.874 | 0.997 | 0.922 | 0.907 | 0.866 | 0.649 | 1.32 | 1.15 | 1.23 | 1.16 | 1.29 |
| NCI-H1395 | 1.01 | 1.18 | 1.07 | 0.94 | 0.831 | 1.04 | 0.947 | 0.879 | 0.918 | 1.04 | 1.03 | 0.866 | 0.899 | 0.774 | 0.689 | 1.07 | 0.901 | 0.98 | 0.934 | 1.02 |
